Results published in patent publication US8754242B2, “Herbicides” (Syngenta Crop Protection LLC, priority 2007, dated 2014).

How the values were obtained:
Type in all cases: in vivo
[1] = tested on: Echinochloa crus-galli (ECHCG); assay: Test Example 1 post-emergence herbicidal activity; conditions: 360 h, rate 125 g/ha, evaluated 15 days later, read-out: Post-emergence activity ECHCG (100=total damage to plant; 0=no damage to plant)
Protocol: (§1) Monocotyledonous and dicotyledonous test plants were sown in standard soil in pots. After cultivation for one day (pre-emergence) or after 10 days cultivation (post-emergence) under controlled conditions in a glasshouse, the plants were sprayed with an aqueous spray solution derived from the formulation of the technical active ingredient in 0.6 ml acetone and 45 ml formulation solution containing 10.6% Emulsogen EL (Registry number 61791-12-6), 42.2% N-methylpyrrolidone, 42.2% dipropylene glycol monomethyl ether (Registry number 34590-94-8) and 0.2% X-77 (Registry number 11097-66-8). The test plants were then grown in a greenhouse under optimum conditions until, 15 days later for post-emergence and 20 days for pre-emergence, the test was evaluated (100=total damage to plant; 0=no damage to plant).
(§2) Alopecurus myosuroides (ALOMY), Avena fatua (AVEFA), Lolium perenne (LOLPE), Setaria faberi (SETFA), Digitaria sanguinalis (DIGSA), Echinochloa crus-galli (ECHCG)

Lolium perenne (LOLPE) [2] = assay: Test Example 1 post-emergence herbicidal activity; conditions: 360 h, rate 125 g/ha, evaluated 15 days later, read-out: Post-emergence activity LOLPE (100=total damage to plant; 0=no damage to plant)
Protocol: as §1, §2

Avena fatua (AVEFA) [3] = assay: Test Example 1 post-emergence herbicidal activity; conditions: 360 h, rate 125 g/ha, evaluated 15 days later, read-out: Post-emergence activity AVEFA (100=total damage to plant; 0=no damage to plant)
Protocol: as §1, §2

[4] = tested on: Alopecurus myosuroides (ALOMY); assay: Test Example 1 post-emergence herbicidal activity; conditions: 360 h, rate 125 g/ha, evaluated 15 days later, read-out: Post-emergence activity ALOMY (100=total damage to plant; 0=no damage to plant)
Protocol: as §1, §2

Setaria faberi (SETFA) [5] = assay: Test Example 1 post-emergence herbicidal activity; conditions: 360 h, rate 125 g/ha, evaluated 15 days later, read-out: Post-emergence activity SETFA (100=total damage to plant; 0=no damage to plant)
Protocol: as §1, §2

[6] = tested on: Digitaria sanguinalis (DIGSA); assay: Test Example 1 post-emergence herbicidal activity; conditions: 360 h, rate 125 g/ha, evaluated 15 days later, read-out: Post-emergence activity DIGSA (100=total damage to plant; 0=no damage to plant)
Protocol: as §1, §2

[7] = tested on: Echinochloa crus-galli (ECHCG); assay: Test Example 1 pre-emergence herbicidal activity; conditions: Echinochloa crus-galli, 480 h, rate 250 g/ha, evaluated 20 days later, read-out: Pre-emergence activity ECHCG (100=total damage to plant; 0=no damage to plant)
Protocol: as §1, §2

Lolium perenne (LOLPE) [8] = assay: Test Example 1 pre-emergence herbicidal activity; conditions: Lolium perenne, 480 h, rate 250 g/ha, evaluated 20 days later, read-out: Pre-emergence activity LOLPE (100=total damage to plant; 0=no damage to plant)
Protocol: as §1, §2

Avena fatua (AVEFA) [9] = assay: Test Example 1 pre-emergence herbicidal activity; conditions: Avena fatua, 480 h, rate 250 g/ha, evaluated 20 days later, read-out: Pre-emergence activity AVEFA (100=total damage to plant; 0=no damage to plant)
Protocol: as §1, §2

[10] = tested on: Alopecurus myosuroides (ALOMY); assay: Test Example 1 pre-emergence herbicidal activity; conditions: Alopecurus myosuroides, 480 h, rate 250 g/ha, evaluated 20 days later, read-out: Pre-emergence activity ALOMY (100=total damage to plant; 0=no damage to plant)
Protocol: as §1, §2

Setaria faberi (SETFA) [11] = assay: Test Example 1 pre-emergence herbicidal activity; conditions: Setaria faberi, 480 h, rate 250 g/ha, evaluated 20 days later, read-out: Pre-emergence activity SETFA (100=total damage to plant; 0=no damage to plant)
Protocol: as §1, §2

[12] = tested on: Digitaria sanguinalis (DIGSA); assay: Test Example 1 pre-emergence herbicidal activity; conditions: Digitaria sanguinalis, 480 h, rate 250 g/ha, evaluated 20 days later, read-out: Pre-emergence activity DIGSA (100=total damage to plant; 0=no damage to plant)
Protocol: as §1, §2

| Structure (SMILES) | pest or weed control at 125 g/ha [1] | pest or weed control at 125 g/ha (Lolium perenne (LOLPE) [2]) | pest or weed control at 125 g/ha (Avena fatua (AVEFA) [3]) | pest or weed control at 125 g/ha [4] | pest or weed control at 125 g/ha (Setaria faberi (SETFA) [5]) | pest or weed control at 125 g/ha [6] | pest or weed control at 250 g/ha [7] | pest or weed control at 250 g/ha (Lolium perenne (LOLPE) [8]) | pest or weed control at 250 g/ha (Avena fatua (AVEFA) [9]) | pest or weed control at 250 g/ha [10] | pest or weed control at 250 g/ha (Setaria faberi (SETFA) [11]) | pest or weed control at 250 g/ha [12] |
| --- | --- | --- | --- | --- | --- | --- | --- | --- | --- | --- | --- | --- |
| CCOC(=O)C1=NOC2C1[C@@H]1O[C@H]2[C@H]2C(O)=C(c3c(CC)cc(C)cc3CC)C(=O)[C@H]21 (mixture of isomers) [Example T16] | 30% | 50% | 20% | 40% | 0% | 0% | 0% | 0% | 10% | 0% | 10% | 0% |
| Cc1cc(C)c(C2=C(O)[C@H]3[C@@H](C2=O)[C@@H]2C=C[C@@]3(C(C)O)O2)c(C)c1 (mixture of isomers) [Example T39] | 70% | 0% | 20% | 10% | 60% | 70% | 30% | 30% | 20% | 10% | 40% | 30% |
| C#CCOC(=O)OC1=C(c2c(C)cc(C)cc2C)C(=O)[C@@H]2[C@H]1[C@H]1CC[C@@H]2O1 (racemic) [Example P3] | 100% | 100% | 90% | 100% | 80% | 70% | 100% | 100% | 100% | 100% | 90% | 90% |
| Cc1cc(C)c(C2=C(OC(=O)OC(C)C)[C@H]3[C@@H](C2=O)[C@@H]2CC[C@H]3O2)c(C)c1 (racemic) [Example P4] | 100% | 100% | 90% | 100% | 90% | 80% | 90% | 100% | 100% | 100% | 70% | 90% |
| Cc1cc(C)c(C2=C(OC(=O)C3CC3)[C@H]3[C@@H](C2=O)[C@@H]2CC[C@H]3O2)c(C)c1 (racemic) [Example P5] | 100% | 100% | 90% | 100% | 80% | 60% | 90% | 100% | 100% | 100% | 90% | 100% |
| CCc1cc(C)cc(CC)c1C1=C(OC(=O)C(C)(C)C)[C@H]2[C@@H](C1=O)[C@@H]1CC[C@H]2O1 (racemic) [Example P14] | 100% | 90% | 90% | 90% | 100% | 100% | 100% | 100% | 100% | 100% | 100% | 100% |
| CC#CCOC(=O)OC1=C(c2c(CC)cc(C)cc2CC)C(=O)[C@@H]2[C@H]1[C@H]1CC[C@@H]2O1 (racemic) [Example P15] | 100% | 90% | 90% | 100% | 80% | 80% | 100% | 90% | 90% | 80% | 100% | 100% |
| CCc1cc(C)cc(CC)c1C1=C(OC(=O)OCC(C)C)[C@H]2[C@@H](C1=O)[C@@H]1CC[C@H]2O1 (racemic) [Example P24] | 100% |  |  | 100% | 100% |  | 100% | 100% | 90% | 90% | 100% | 100% |
| Cc1cc(C)c(C2=C(OC(=O)C(C)(C)C)[C@H]3[C@@H](C2=O)[C@@H]2CC[C@H]3O2)c(C)c1 (racemic) [Example P33, (1RS,2SR,6RS,7SR)-5-oxo-4-(2,4,6-trimethylphenyl)-10-oxatricyclo[5.2.1.0^2,6]dec-3-en-3-yl 2,2-dimethylpropionate] | 90% | 80% | 70% | 80% | 70% | 70% |  | 100% | 70% | 90% | 80% | 80% |
| COC[C@]12CC[C@H](O1)[C@@H]1C(=O)C(c3c(C)cc(C)cc3C)=C(OC(=O)C3CC3)[C@@H]12 (single isomer, unassigned) [Example P30] | 100% | 70% |  | 80% | 80% | 90% | 90% | 90% | 80% | 80% | 80% | 80% |
| CSC[C@]12CC[C@H](O1)[C@@H]1C(=O)C(c3c(C)cc(C)cc3C)=C(O)[C@@H]12 [Example T53] |  |  |  |  |  |  | 0% | 10% | 20% | 10% | 10% | 10% |
| CCc1cc(C)cc(CC)c1C1=C(O)[C@@H]2[C@@H]3O[C@@H](C[C@H]3c3cccc(Cl)c3)[C@@H]2C1=O [Example T148] |  |  |  |  |  |  | 80% | 70% | 50% | 60% | 60% | 70% |
| CCc1cc(C)cc(CC)c1C1=C(O)[C@@H]2[C@@H]3O[C@@H](C[C@H]3c3cccc(F)c3C#N)[C@@H]2C1=O [Example T157] | 100% | 40% | 60% | 60% | 60% | 60% | 50% | 70% |  | 30% | 0% | 0% |
